The source of these data is patent US5149714A, “Antidepressants” (Merrell Dow Pharmaceuticals Inc., priority 1990, dated 1992).

The structures appear in SMILES notation. Read-outs that look alike come from different tables or passages of the source.

For this assay, the system named is β-adrenergic receptors. The conditions noted are these: Desipramine 5 mg/kg, i.p.; for [^3 H]-DHA Specifically Bound: mean ± SEM, six animals per group. The procedure: The number of β-adrenergic receptors in rat cerebral cortical membranes was measured after a 4 day and 14 day course of one of the following treatments:
a) saline control (intraperitoneal injection--i.p.)
c) fluoxetine (10 mg/kg/day, i.p.) or (10 mg/kg bid, i.p.)
Male Sprague-Dawley rats (175-200 g) were assigned randomly to one of the four treatment groups above and were treated as indicated for either 4 or 14 days. The animals were sacrificed 24 hours after their last treatment and cerebral cortical membranes were isolated. These membranes were assayed for β-adrenergic receptor number by the method of Bylund and Snyder [Mol. Pharmacol. 12, 568 (1976)] by measuring the amount of [3H]dihydro-alprenolol ([^3 H]-DHA) bound.

Take `CNCCC(Oc1ccc(C(F)(F)F)cc1)c1ccccc1` (stereo not shown) [Fluoxetine, fluoxetine]: the “[^3 H]-DHA Specifically Bound, % Control” value reads like this: (A) 14 days, Fluoxetine 10 mg/kg) 91 % Control; (B) 4 days, Fluoxetine 10 mg/kg bid) 95 % Control. Also, the “[^3 H]-DHA Specifically Bound” value by setting is: (A) 14 days, Fluoxetine 10 mg/kg, saline 41.8 ± 1.4, * p < 0.05 vs saline, + P < 0.05 vs Desipramine) 37.9 ± 1.8 fmol/mg protein; (B) 4 days, Fluoxetine 10 mg/kg bid, saline 54.6 ± 3.1, * p < 0.05 vs saline) 51.8 ± 1.7 fmol/mg protein.
